For two molecules, IC50 results are on record in ChEMBL document CHEMBL5335862, “The Science and Art of Structure-Based Virtual Screening” (ACS Med Chem Lett, 2024).

The assay concerns the target CREB-binding protein (Homo sapiens, UniProt Q92793). As to the kind of experiment: Inhibition of CREBBP (unknown origin) by TR-FRET assay. On the technique in general: Time-resolved FRET reads energy transfer from a long-lived donor to a nearby acceptor.

Chain of CREB-binding protein (Q92793 whole entry): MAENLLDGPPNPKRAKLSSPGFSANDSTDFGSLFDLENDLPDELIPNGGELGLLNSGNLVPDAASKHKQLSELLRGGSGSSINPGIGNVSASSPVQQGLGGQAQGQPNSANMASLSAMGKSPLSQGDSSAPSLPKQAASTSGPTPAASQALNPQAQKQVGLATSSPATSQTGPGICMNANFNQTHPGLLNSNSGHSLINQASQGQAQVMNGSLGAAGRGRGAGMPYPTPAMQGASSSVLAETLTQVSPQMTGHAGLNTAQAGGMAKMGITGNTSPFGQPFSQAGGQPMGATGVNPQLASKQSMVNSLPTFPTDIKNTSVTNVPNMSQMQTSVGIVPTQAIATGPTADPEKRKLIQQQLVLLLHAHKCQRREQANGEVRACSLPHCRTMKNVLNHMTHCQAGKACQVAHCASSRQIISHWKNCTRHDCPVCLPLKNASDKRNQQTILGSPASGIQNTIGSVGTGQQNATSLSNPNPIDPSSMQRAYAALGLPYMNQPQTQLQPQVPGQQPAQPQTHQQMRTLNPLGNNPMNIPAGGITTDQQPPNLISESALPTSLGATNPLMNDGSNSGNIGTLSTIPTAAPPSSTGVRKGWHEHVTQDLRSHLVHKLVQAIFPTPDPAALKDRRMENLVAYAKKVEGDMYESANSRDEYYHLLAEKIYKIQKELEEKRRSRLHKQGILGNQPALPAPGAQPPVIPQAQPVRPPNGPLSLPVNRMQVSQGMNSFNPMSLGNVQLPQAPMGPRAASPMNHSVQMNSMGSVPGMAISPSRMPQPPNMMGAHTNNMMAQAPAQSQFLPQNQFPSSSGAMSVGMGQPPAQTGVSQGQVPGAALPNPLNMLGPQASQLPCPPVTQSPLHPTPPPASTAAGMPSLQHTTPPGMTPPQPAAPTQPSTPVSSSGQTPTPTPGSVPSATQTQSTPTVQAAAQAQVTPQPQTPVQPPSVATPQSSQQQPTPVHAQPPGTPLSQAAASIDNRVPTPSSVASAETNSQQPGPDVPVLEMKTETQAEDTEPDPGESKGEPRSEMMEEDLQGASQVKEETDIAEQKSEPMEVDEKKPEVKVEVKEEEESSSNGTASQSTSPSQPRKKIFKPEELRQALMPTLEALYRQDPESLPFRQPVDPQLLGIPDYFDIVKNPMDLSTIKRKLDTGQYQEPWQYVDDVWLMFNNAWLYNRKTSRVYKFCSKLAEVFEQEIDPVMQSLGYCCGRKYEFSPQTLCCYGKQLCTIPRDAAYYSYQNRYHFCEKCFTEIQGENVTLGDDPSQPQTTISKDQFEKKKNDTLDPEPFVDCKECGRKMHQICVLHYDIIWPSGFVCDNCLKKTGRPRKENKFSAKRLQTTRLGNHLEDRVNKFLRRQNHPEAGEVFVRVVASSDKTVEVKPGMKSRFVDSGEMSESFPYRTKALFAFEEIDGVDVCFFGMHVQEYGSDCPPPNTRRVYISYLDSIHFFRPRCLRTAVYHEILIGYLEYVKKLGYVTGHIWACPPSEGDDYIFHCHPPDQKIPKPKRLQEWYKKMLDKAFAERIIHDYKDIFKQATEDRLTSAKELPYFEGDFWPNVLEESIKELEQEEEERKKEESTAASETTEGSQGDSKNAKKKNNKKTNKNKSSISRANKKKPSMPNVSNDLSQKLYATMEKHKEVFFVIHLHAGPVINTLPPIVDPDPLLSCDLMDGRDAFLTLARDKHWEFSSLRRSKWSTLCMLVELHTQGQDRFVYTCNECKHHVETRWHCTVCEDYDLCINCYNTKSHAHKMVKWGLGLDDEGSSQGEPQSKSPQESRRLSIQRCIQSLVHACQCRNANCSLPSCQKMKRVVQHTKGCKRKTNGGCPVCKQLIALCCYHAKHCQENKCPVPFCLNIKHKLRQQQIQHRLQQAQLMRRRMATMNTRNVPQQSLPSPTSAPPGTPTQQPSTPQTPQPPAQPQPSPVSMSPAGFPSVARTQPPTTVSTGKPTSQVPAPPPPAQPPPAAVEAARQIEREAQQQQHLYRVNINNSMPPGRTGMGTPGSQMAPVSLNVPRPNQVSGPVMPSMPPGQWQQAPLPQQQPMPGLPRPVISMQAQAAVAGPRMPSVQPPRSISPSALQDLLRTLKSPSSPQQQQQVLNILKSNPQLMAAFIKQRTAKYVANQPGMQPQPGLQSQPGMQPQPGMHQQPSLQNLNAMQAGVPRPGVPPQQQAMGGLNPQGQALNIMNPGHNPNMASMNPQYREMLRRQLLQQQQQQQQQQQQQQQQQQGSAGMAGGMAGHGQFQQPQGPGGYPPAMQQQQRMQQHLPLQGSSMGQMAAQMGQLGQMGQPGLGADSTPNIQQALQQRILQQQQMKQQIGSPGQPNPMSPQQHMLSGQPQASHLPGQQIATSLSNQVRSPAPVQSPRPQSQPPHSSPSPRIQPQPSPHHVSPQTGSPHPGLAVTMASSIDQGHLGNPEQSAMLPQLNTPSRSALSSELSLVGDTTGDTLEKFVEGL

By IC50 is commonly meant the concentration at which inhibition is half-maximal. The molecule `Cc1ccc(O)cc1-n1c(N)c(C(N)=O)c2nc3ccccc3nc21` displayed an IC50 of 300 nM.

In turn, `Cc1cc2c(C(N)=O)c(N)n(-c3c(C)ccc(O)c3C)c2nc1C` [LUNRESERTIB] showed an IC50 of 300 nM.
